Consider 28 compounds from patent publication US20100137313A1 (ASTRAZENECA AB, priority 2008, published 2010).

For the assay, the target named is S. pneumoniae Topoisomerase IV ATPase (ParE) (Streptococcus pneumoniae serotype 4, UniProt Q59961). Description: S. pneumoniae Topoisomerase IV ATPase inhibition. The assay is classed as biochemical. Conditions: values marked * are an average of two or more data points, read-out: % Inh (13 μM) of S. pneumoniae Topoisomerase IV ATPase. The essentials: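 Malachite green/ammonium molybdate phosphate detection, A650. 1.25 nM ParE, 160 μM ATP, sheared salmon sperm DNA 5 μg/ml, 20 mM Tris pH 8.0, 8.0 mM MgCl2. Controls: 2% DMSO = 0%, 20 μM EDTA = 100% inhibition; IC50 over 10 concentrations.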
Sequence of S. pneumoniae Topoisomerase IV ATPase (ParE) (Q59961 whole entry): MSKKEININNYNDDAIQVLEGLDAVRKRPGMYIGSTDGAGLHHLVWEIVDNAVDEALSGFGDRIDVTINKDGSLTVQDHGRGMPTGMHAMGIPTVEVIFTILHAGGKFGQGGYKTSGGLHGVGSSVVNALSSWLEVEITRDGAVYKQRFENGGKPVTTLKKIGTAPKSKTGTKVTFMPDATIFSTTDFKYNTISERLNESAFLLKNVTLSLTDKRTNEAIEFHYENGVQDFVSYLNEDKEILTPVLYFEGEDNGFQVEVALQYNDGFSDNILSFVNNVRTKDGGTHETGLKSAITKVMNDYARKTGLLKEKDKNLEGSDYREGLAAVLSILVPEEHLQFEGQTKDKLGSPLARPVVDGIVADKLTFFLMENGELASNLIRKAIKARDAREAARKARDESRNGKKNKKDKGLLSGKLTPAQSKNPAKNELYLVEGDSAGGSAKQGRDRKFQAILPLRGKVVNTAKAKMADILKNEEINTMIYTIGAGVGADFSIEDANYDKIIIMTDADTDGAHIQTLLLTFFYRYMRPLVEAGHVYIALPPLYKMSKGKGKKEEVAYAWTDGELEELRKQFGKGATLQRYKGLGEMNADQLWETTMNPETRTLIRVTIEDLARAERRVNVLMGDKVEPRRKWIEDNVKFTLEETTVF
As to `Cc1cc(C(F)(F)F)nn1-c1nc(Nc2ccc(F)c(Cl)c2)ncc1-c1cc(C(=O)O)c(=O)n(CCS(C)(=O)=O)c1` [Example 1093, 5-(2-(3-Chloro-4-fluorophenylamino)-4-(5-methyl-3-(trifluoromethyl)-1H-pyrazol-1-yl)pyrimidin-5-yl)-1-(2-(methylsulfonyl)ethyl)-2-oxo-1,2-dihydropyridine-3-carboxylic acid], the inhibition at 13 µM was 100%.
The figure for `Cc1cc(C(F)(F)F)nn1-c1nc(Nc2ccc(F)c(Cl)c2)ncc1-c1c[nH]c(=O)c(C(=O)O)c1` [Example 1094, 5-(2-(3-Chloro-4-fluorophenylamino)-4-(5-methyl-3-(trifluoromethyl)-1H-pyrazol-1-yl)pyrimidin-5-yl)-2-oxo-1,2-dihydropyridine-3-carboxylic acid] is 99%; for `COc1cc(Nc2ncc(-c3cc(C(=O)O)c(=O)n(CCS(C)(=O)=O)c3)c(-n3ccc(C(F)(F)F)n3)n2)cc(OC)c1` [Example 1095, 5-(2-(3,5-dimethoxyphenylamino)-4-(3-(trifluoromethyl)-1H-pyrazol-1-yl)pyrimidin-5-yl)-1-(2-(methylsulfonyl)ethyl)-2-oxo-1,2-dihydropyridine-3-carboxylic acid] it is 100%.
The figure for `COc1cc(Nc2ncc(-c3c[nH]c(=O)c(C(=O)O)c3)c(-n3ccc(C(F)(F)F)n3)n2)cc(OC)c1` [Example 1096, 5-(2-(3,5-Dimethoxyphenylamino)-4-(3-(trifluoromethyl)-1H-pyrazol-1-yl)pyrimidin-5-yl)-2-oxo-1,2-dihydropyridine-3-carboxylic acid] is 100%.
The figure for `COc1cc(Nc2ncc(-c3cc(C(=O)O)c(=O)n(CCS(C)(=O)=O)c3)c(-n3nc(C(F)(F)F)cc3C)n2)cc(OC)c1` [Example 1097, 5-(2-(3,5-Dimethoxyphenylamino)-4-(5-methyl-3-(trifluoromethyl)-1H-pyrazol-1-yl)pyrimidin-5-yl)-1-(2-(methylsulfonyl)ethyl)-2-oxo-1,2-dihydropyridine-3-carboxylic acid] is 100%; for `COc1cc(Nc2ncc(-c3c[nH]c(=O)c(C(=O)O)c3)c(-n3nc(C(F)(F)F)cc3C)n2)cc(OC)c1` [Example 1098, 5-(2-(3,5-Dimethoxyphenylamino)-4-(5-methyl-3-(trifluoromethyl)-1H-pyrazol-1-yl)pyrimidin-5-yl)-2-oxo-1,2-dihydropyridine-3-carboxylic acid] it is 100%; for `O=C(O)CS(=O)(=O)c1cccc(-c2cnc(Nc3ccc(F)c(Cl)c3)nc2-n2ccc(C(F)(F)F)n2)c1` [Example 1099, 2-(3-(2-(3-chloro-4-fluorophenylamino)-4-(3-(trifluoromethyl)-1H-pyrazol-1-yl)pyrimidin-5yl)phenylsulfonyl)acetic acid] it is 100%.
`CNC(=O)c1cc(-c2cnc(Nc3ccc(F)c(Cl)c3)nc2-n2ccc(C(F)(F)F)n2)cnc1OC` [Example 1100, 5-(2-(3-chloro-4-fluorophenylamino)-4-(3-(trifluoromethyl)-1H-pyrazol-1-yl)pyrimidin-5-yl)-2-methoxy-N-methylnicotinamide]: the inhibition at 13 µM was 75%.
The figure for `CONC(=O)c1cc(-c2cnc(Nc3ccc(F)c(Cl)c3)nc2-n2ccc(C(F)(F)F)n2)cnc1OC` [Example 1101, 5-(2-(3-chloro-4-fluorophenylamino)-4-(3-(trifluoromethyl)-1H-pyrazol-1-yl)pyrimidin-5-yl)-N,2-dimethoxynicotinamide] is 82%.
Turning to `CONC(=O)c1cc(-c2cnc(Nc3ccc(F)c(Cl)c3)nc2-n2nc(C(F)(F)F)cc2C)cnc1OC` [Example 1102, 5-(2-(3-chloro-4-fluorophenylamino)-4-(5-methyl-3-(trifluoromethyl)-1H-pyrazol-1-yl)pyrimidin-5-yl)-N,2-dimethoxynicotinamide], the inhibition at 13 µM turned out to be 96%.
To `CNC(=O)c1cc(-c2cnc(Nc3ccc(F)c(Cl)c3)nc2-n2nc(C(F)(F)F)cc2C)cnc1OC` [Example 1103, 5-(2-(3-chloro-4-fluorophenylamino)-4-(5-methyl-3-(trifluoromethyl)-1H-pyrazol-1-yl)pyrimidin-5-yl)-2-methoxy-N-methylnicotinamide] belongs 76%.
To `COc1ncc(-c2cnc(Nc3ccc(F)c(Cl)c3)nc2-n2nc(C(F)(F)F)cc2C)cc1C(N)=O` [Example 1105, 5-(2-(3-chloro-4-fluorophenylamino)-4-(5-methyl-3-(trifluoromethyl)-1H-pyrazol-1-yl)pyrimidin-5-yl)-2-methoxynicotinamide] belongs 82%.
To `COc1ccc(-c2cnc(Nc3ccc(F)c(Cl)c3)nc2-n2ccc(C(F)(F)F)n2)cc1C(N)=O` [Example 1106, 5-(2-(3-chloro-4-fluorophenylamino)-4-(3-(trifluoromethyl)-1H-pyrazol-1-yl)pyrimidin-5-yl)-2-methoxybenzamide] belongs 21%; to `CCC(C)Nc1nc(Nc2ccc(F)c(Cl)c2)ncc1-c1cc2ccccc2o1` (stereo not shown) [Example 1108, 5-(1-benzofuran-2-yl)-N′-butan-2-yl-N-(3-chloro-4-fluorophenyl)pyrimidine-2,4-diamine], 18%.
As for `CCC(C)Nc1nc(Nc2ccc(F)c(Cl)c2)ncc1-c1ccc(OC)c(C(F)(F)F)c1` (stereo not shown) [Example 1109, N′-butan-2-yl-N-(3-chloro-4-fluorophenyl)-5-[4-methoxy-3-(trifluoromethyl)phenyl]pyrimidine-2,4-diamine], the inhibition at 13 µM is 28%.
To `CCC(C)Nc1nc(Nc2ccc(F)c(Cl)c2)ncc1-c1ccc(Cl)c(NC(=O)OC(C)(C)C)c1` (stereo not shown) [Example 1110, tert-butyl N-[5-[4-(butan-2-ylamino)-2-[(3-chloro-4-fluorophenyl)amino]pyrimidin-5-yl]-2-chlorophenyl]carbamate] belongs 99%; to `O=C(O)c1ccc(-c2cnc(Nc3ccc(F)c(Cl)c3)nc2-n2ccnc2)s1` [Example 1111, 5-[2-[(3-chloro-4-fluorophenyl)-amino]-4-imidazol-1-ylpyrimidin-5-yl]thiophene-2-carboxylic acid], 88%; to `CCOC(=O)/C=C/c1cccc(-c2cnc(Nc3ccc(F)c(Cl)c3)nc2-n2cccn2)c1` [Example 1112, ethyl (E)-3-[3-[2-[(3-chloro-4-fluorophenyl)amino]-4-pyrazol-1-ylpyrimidin-5-yl]phenyl]prop-2-enoate], 71%.
For the compound `Fc1ccc(Nc2ncc(-c3cncnc3)c(-n3ccnc3)n2)cc1Cl` [Example 1113, N-(3-chloro-4-fluorophenyl)-4-imidazol-1-yl-5-pyrimidin-5-ylpyrimidin-2-amine], the inhibition at 13 µM turned out to be 72%.
Turning to `Cc1cc(C(F)(F)F)nn1-c1nc(Nc2ccc(F)c(Cl)c2)ncc1-c1ccc(C(=O)O)s1` [Example 1114, 5-[2-[(3-chloro-4-fluorophenyl)amino]-4-[5-methyl-3-(trifluoromethyl)pyrazol-1-yl]pyrimidin-5-yl]thiophene-2-carboxylic acid], the inhibition at 13 µM stood at 100%.
To `CS(=O)(=O)c1cc(Nc2ncc(-c3cccc(/C=C/C(=O)O)c3)c(-n3ccc(C(F)(F)F)n3)n2)ccc1F` [Example 1115, (E)-3-(3-(2-(4-fluoro-3-(methylsulfonyl)phenylamino)-4-(3-(trifluoromethyl)-1H-pyrazol-1-yl)pyrimidin-5-yl)phenyl)acrylic acid] belongs 93%; to `Cc1cc(C(F)(F)F)nn1-c1nc(Nc2cc(F)cc(C#N)c2)ncc1-c1cccc(/C=C/C(=O)O)c1` [Example 1116, (E)-3-(3-(2-(3-cyano-5-fluorophenylamino)-4-(5-methyl-3-(trifluoromethyl)-1H-pyrazol-1-yl)pyrimidin-5-yl)phenyl)acrylic acid], 97%.
The figure for `O=C(O)/C=C/c1cccc(-c2cnc(Nc3ccc(F)c(Cl)c3)nc2-n2cccn2)c1` [Example 1120, (E)-3-[3-[2-[(3-chloro-4-fluorophenyl)amino]-4-pyrazol-1-ylpyrimidin-5-yl]phenyl]prop-2-enoic acid] is 79%; for `Cc1cc(C(F)(F)F)nn1-c1nc(Nc2cc(F)cc(C#N)c2)ncc1-c1cncc(C(=O)O)c1` [Example 1121, 5-(2-(3-cyano-5-fluorophenylamino)-4-(5-methyl-3-(trifluoromethyl)-1H-pyrazol-1-yl)pyrimidin-5-yl)nicotinic acid] it is 99%; for `COc1ncc(-c2cnc(Nc3cc(Cl)cc(C#N)c3)nc2-n2nc(C(F)(F)F)cc2C)cc1C(=O)O` [Example 1122, 5-(2-(3-chloro-5-cyanophenylamino)-4-(5-methyl-3-(trifluoromethyl)-1H-pyrazol-1-yl)pyrimidin-5-yl)-2-methoxynicotinic acid] it is 100%.
The figure for `Cc1cc(C(F)(F)F)nn1-c1nc(Nc2cc(Cl)cc(C#N)c2)ncc1-c1cncc(C(=O)O)c1` [Example 1123, 5-(2-(3-chloro-5-cyanophenylamino)-4-(5-methyl-3-(trifluoromethyl)-1H-pyrazol-1-yl)pyrimidin-5-yl)nicotinic acid] is 100%; for `NC(=O)c1cncc(-c2cnc(Nc3ccc(F)c(Cl)c3)nc2-n2ccc(C(F)(F)F)n2)c1` [Example 1124, 5-[2-[(3-chloro-4-fluorophenyl)amino]-4-[3-(trifluoromethyl)pyrazol-1-yl]pyrimidin-5-yl]pyridine-3-carboxamide] it is 42%.
For the compound `CCNC(=O)c1cncc(-c2cnc(Nc3ccc(F)c(Cl)c3)nc2-n2ccc(C(F)(F)F)n2)c1` [Example 1125, 5-[2-[(3-chloro-4-fluorophenyl)amino]-4-[3-(trifluoromethyl)pyrazol-1-yl]pyrimidin-5-yl]-N-ethylpyridine-3-carboxamide], the inhibition at 13 µM worked out at 51%.
